According to article PMC10419174, “WR1065 conjugated to thiol-PEG polymers as novel anticancer prodrugs: broad spectrum efficacy, synergism, and drug resistance reversal” (Frontiers in Oncology, 2023):
“And” between values parts separate entries of the source, which are not always exact repeats. Equal entries are not always repeated. Where two headings read alike, the source gives them in different places. Marks after values point to notes of the source that are not given here.

How the values were obtained:
[1] = system: Strain-2 and Strain-3 NHMECs; assay type: cell-based; details: 48 h; for IC50: read-out: IC50
Description: Normal human mammary epithelial cell (NHMEC) strains used to assess potential cytotoxicity of 4SP65 and 1LP65 were established from reduction mammoplasty tissue from a healthy donor (M99005 or ‘Strain-1’) ([53]) or purchased from ATCC (Manassas, VA, USA; batch#70043304 or ‘Strain-2’) or Cell Applications (San Diego, CA, USA; lot#1669 or ‘Strain-3’). Human cancer cell lines including HCC38, MDA-MB-231, A549, National Cancer Institute (NCI)-H460, NCI-H1437, NCI-H1975, DU145, LNCaP, PC3, PANC1, SKOV3, and HL60, which were free of Mycoplasma, were purchased from ATCC. HMESO1, PPMMill, and TOV21G cells, obtained from Dr. Brian Cunniff, were verified to be Mycoplasma negative using the LookOut® Mycoplasma PCR Detection Kit (Sigma-Aldrich) and to match previously annotated DNA fingerprints by the Vermont Integrative Genomics Resource DNA Analysis Facility.
To assess the effects of 4SP65 or 1LP65 on the growth of normal epithelium, experiments were performed using NHMEC strains from differing donors ([53]). Strain-1 NHMECs were plated at 5,000 cells/well in 24-well plates and allowed to reach 50% confluence before treatment with 0-150 µM 4SP65 for 48 h. Cell viability was determined using a hemocytometer and trypan blue exclusion assay. Two other NHMEC strains, exposed to 0-150 µM 4SP65 or 0-500 µM 1LP65 for 48 h, were handled in the same fashion except that viability of cells in 96-well plates was determined using CyQUANT dye. Due to the short life span of these NHMECs, standard curves were not generated and fluorescence readings were used as a surrogate marker of cell number ([54]).

[2] = system: Prostate DU145 cells; experiment: cells
Experimental: (§1) The percentage of growth inhibition was calculated as follows: […]

[3] = system: NCI-H1975 NSCLC cells; experiment: cells
Experimental: as §1

[4] = system: A549 NSCLC cells; experiment: cells
Experimental: as §1

[5] = system: Ovary SKOV3 cells; experiment: cells
Experimental: as §1

[6] = 48-h treatment, amifostine ND = not definable up to 500 µM
[7] = drug alone ÷ drug in 4SP65-DDP combination, at GI50
[8] = drug alone, 48 h, 4SP65/cisplatin study
[9] = drug alone, 48 h, 4SP65/gefitinib study
[10] = drug alone, 48 h, 4SP65/gefitinib study, ND = not definable, highest concentration in parentheses

For 4-star-PEG-S-S-WR1065 [4SP65], the IC50 ([1]; Strain-2 NHMECs) was > 150 µM, the growth enhancement ([1]; Strain-2 and Strain-3 cells, 3 µM) was 162% ± 7% and the “growth relative to control cells” value ([1]; Strain-2 and Strain-3 cells, 9 µM) was 78% ± 12%. The “growth relative to control cells” value ([1]; Strain-2 and Strain-3 cells, 30 µM) was 52% ± 8%, the “growth relative to control cells” value ([1]; Strain-2 and Strain-3 cells, 90 µM) was 21% ± 4% and the “growth relative to control cells” value ([1]; Strain-2 and Strain-3 cells, 150 µM) was 8.7% ± 2%. For the same substance, the IC50 ([1]; Strain-3 NHMECs) was 76 ± 14 µM, the CC50 [2] was 11.1 ± 0.1 µM and the GI50 [2, 6] was 7.5 ± 1.2 µM. For the same substance, the IC50 [2, 6] was 8.5 ± 1 µM, the LC99 [2, 6] was 12.0 ± 0.1 µM and the TGI [2, 6] was 9.5 ± 0.7 µM and 9.5 µM. The “Dose reduction value 1LP65 ÷ 4SP65” value ([2]; at GI50) was 3.5 fold, the “Dose reduction value AMF ÷ 4SP65” value ([2]; at GI50) was 17 fold and the “Dose reduction value 1LP65 ÷ 4SP65” value ([2]; at IC50) was 3.5 fold. The “Dose reduction value AMF ÷ 4SP65” value ([2]; at IC50) was 38 fold, the “Dose reduction value 1LP65 ÷ 4SP65” value ([2]; at LC50) was 6.4 fold and the “Dose reduction value 1LP65 ÷ 4SP65” value ([2]; at LC99) was 7.0 fold. The “Dose reduction value 1LP65 ÷ 4SP65” value ([2]; at TGI) was 5.6 fold, the CC50 [3] was 7.6 ± 1.3 µM and the GI50 [3, 6] was 3.1 ± 0.6 µM. For the same substance, the IC50 [3, 6] was 4.2 ± 1 µM, the LC99 [3, 6] was 9.3 ± 1.1 µM and the TGI [3, 6] was 5.2 ± 0.9 µM. For the same substance, the “Dose reduction value 1LP65 ÷ 4SP65” value ([3]; at GI50) was 13 fold, the “Dose reduction value AMF ÷ 4SP65” value ([3]; at GI50) was 42 fold and the “Dose reduction value 1LP65 ÷ 4SP65” value ([3]; at IC50) was 13 fold. For the same substance, the “Dose reduction value 1LP65 ÷ 4SP65” value ([3]; at LC50) was 8.3 fold, the “Dose reduction value 1LP65 ÷ 4SP65” value ([3]; at LC99) was 9.3 fold and the “Dose reduction value 1LP65 ÷ 4SP65” value ([3]; at TGI) was 10 fold. For the same substance, the “gains of cytostatic and cytolytic activities, range” value ([4]; 4SP65-cisplatin combined) was 1.9- to 2.4 fold, the GI50 [4, 6] was 5.3 ± 1.1 µM and the IC50 [4, 6] was 6.8 ± 1.3 µM. For the same substance, the LC99 [4, 6] was 14.9 ± 3.8 µM, the TGI [4, 6] was 8.5 ± 1.5 µM and 8.5 µM and the “LC99, drug in combination (CMB)” value ([4]; amount of each drug in combination, ratio 50% 4SP65:50% DDP, 48 h) was 8 µM. The “Dose reduction value 1LP65 ÷ 4SP65” value ([4]; at GI50) was 9.9 fold, the “Dose reduction value AMF ÷ 4SP65” value ([4]; at GI50) was 43 fold and the “Dose reduction value 1LP65 ÷ 4SP65” value ([4]; at IC50) was 9.8 fold. For the same substance, the “Dose reduction value AMF ÷ 4SP65” value ([4]; at IC50) was 37 fold, the “Dose reduction value 1LP65 ÷ 4SP65” value ([4]; at LC50) was 13 fold and the “Dose reduction value 1LP65 ÷ 4SP65” value ([4]; at LC99) was 13 fold. The “Dose reduction value 1LP65 ÷ 4SP65” value ([4]; at TGI) was 15 fold, the “Fold increase in efficacy” value [4, 7] was 2.4* fold and the “Fold increase in efficacy” value ([4]; drug alone ÷ drug in 4SP65-DDP combination, at IC50) was 2.2* fold. The “Fold increase in efficacy” value ([4]; drug alone ÷ drug in 4SP65-DDP combination, at LC50) was 1.9* fold, the “Fold increase in efficacy” value ([4]; drug alone ÷ drug in 4SP65-DDP combination, at LC99) was 1.9* fold and the “Fold increase in efficacy” value ([4]; drug alone ÷ drug in 4SP65-DDP combination, at TGI) was 1.9* fold. The “Fold increase in efficacy” value ([4]; drug alone ÷ drug in 4SP65-GEF combination, at GI50) was 1.5** fold, the “Fold increase in efficacy” value ([4]; drug alone ÷ drug in 4SP65-GEF combination, at IC50) was 1.4** fold and the “Fold increase in efficacy” value ([4]; drug alone ÷ drug in 4SP65-GEF combination, at LC50, GoE = gain of effect) was 1.1 (NS) fold. The “Fold increase in efficacy” value ([4]; drug alone ÷ drug in 4SP65-GEF combination, at LC99, GoE = gain of effect) was 1.0 (NS) fold, the “Fold increase in efficacy” value ([4]; drug alone ÷ drug in 4SP65-GEF combination, at TGI, GoE = gain of effect) was 1.5** fold and the GI50 [4, 8] was 5.4 ± 2.5 µM. The IC50 [4, 8] was 6.8 ± 1.3 µM, the LC99 [4, 8] was 14.9 ± 3.8 µM and the TGI [4, 8] was 8.3 ± 1.5 µM. For the same substance, the GI50 [4, 9] was 6 ± 0.6 µM, the IC50 [4, 9] was 7.4 ± 0.7 µM and the LC99 [4, 10] was 12.3 ± 3.8 µM. It also gave a TGI [4, 10] of 11.3 ± 1.5 µM, a GI50 [5, 6] of 4 ± 0.8 µM and an IC50 [5, 6] of 5.1 ± 0.9 µM. The LC99 [5, 6] was 10.5 ± 1.5 µM, the TGI [5, 6] was 6.8 ± 0.9 µM and 6.8 µM and the “fold more effective as a cytostatic agent than PRIMA-1 or APR-246” value ([5]; TP53-null SKOV3 cells) was 3.3- to 16 fold. The “Dose reduction value 1LP65 ÷ 4SP65” value ([5]; at GI50) was 10 fold, the “Dose reduction value AMF ÷ 4SP65” value ([5]; at GI50) was 20 fold and the “Dose reduction value 1LP65 ÷ 4SP65” value ([5]; at IC50) was 8.9 fold. The “Dose reduction value AMF ÷ 4SP65” value ([5]; at IC50) was 58 fold, the “Dose reduction value 1LP65 ÷ 4SP65” value ([5]; at LC50) was 7.5 fold and the “Dose reduction value 1LP65 ÷ 4SP65” value ([5]; at LC99) was 9.4 fold. For the same substance, the “Dose reduction value 1LP65 ÷ 4SP65” value ([5]; at TGI) was 7.4 fold and the “Fold increase in efficacy” value [5, 7] was 1.5** fold.
